# Results from PubChem BioAssay (NCI).
#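 A five-concentration, 48-hour dose response in 96-well plates underlies each endpoint, interpolated linearly between surrounding concentrations. TGI denotes the concentration required for complete inhibition of growth.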
# How the values were obtained:
# Test in all cases: NCI-60 cell line screen, 48 h
# MALME-3M melanoma = tested on: MALME-3M melanoma
# A549 NSCLC = tested on: A549 NSCLC
# SNB-19 CNS = tested on: SNB-19 CNS
# OVCAR-5 ovarian = tested on: OVCAR-5 ovarian
# TK-10 renal = tested on: TK-10 renal
# RXF 393 renal = tested on: RXF 393 renal
# SK-OV-3 ovarian = tested on: SK-OV-3 ovarian
# UO-31 renal = tested on: UO-31 renal
# NCI-H23 lung = tested on: NCI-H23 lung
# ACHN renal = tested on: ACHN renal
# CCRF-CEM leukemia = tested on: CCRF-CEM leukemia
# SF-539 CNS = tested on: SF-539 CNS
# HL-60(TB) leukemia = tested on: HL-60(TB) leukemia
# IGROV1 ovarian = tested on: IGROV1 ovarian
# 786-0 renal = tested on: 786-0 renal
# HCT-116 colon = tested on: HCT-116 colon
# HOP-92 NSCLC = tested on: HOP-92 NSCLC
# COLO 205 colon = tested on: COLO 205 colon
# SN12C renal = tested on: SN12C renal
# KM12 colon = tested on: KM12 colon
# MCF7 breast = tested on: MCF7 breast
# EKVX NSCLC = tested on: EKVX NSCLC
# LOX IMVI melanoma = tested on: LOX IMVI melanoma
# BT-549 breast = tested on: BT-549 breast
# SK-MEL-2 melanoma = tested on: SK-MEL-2 melanoma
# SF-268 CNS = tested on: SF-268 CNS
# SF-295 CNS = tested on: SF-295 CNS
# NCI-H522 lung = tested on: NCI-H522 lung
# NCI-H226 lung = tested on: NCI-H226 lung
# MDA-N = tested on: MDA-N
# K-562 leukemia = tested on: K-562 leukemia
# SK-MEL-28 melanoma = tested on: SK-MEL-28 melanoma
# NCI-H460 lung = tested on: NCI-H460 lung
# U251 CNS = tested on: U251 CNS
# A498 renal = tested on: A498 renal
# MDA-MB-231 breast = tested on: MDA-MB-231 breast
# DU-145 prostate = tested on: DU-145 prostate
# HCC-2998 colon = tested on: HCC-2998 colon
# MDA-MB-435 = tested on: MDA-MB-435
# HT29 colon = tested on: HT29 colon
# MOLT-4 leukemia = tested on: MOLT-4 leukemia
# UACC-257 melanoma = tested on: UACC-257 melanoma
# HS 578T breast = tested on: HS 578T breast
# CAKI-1 renal = tested on: CAKI-1 renal
# M14 melanoma = tested on: M14 melanoma
# SNB-75 CNS = tested on: SNB-75 CNS
# SW-620 colon = tested on: SW-620 colon
# OVCAR-8 ovarian = tested on: OVCAR-8 ovarian
# T-47D breast = tested on: T-47D breast
# SR leukemia = tested on: SR leukemia
# OVCAR-4 ovarian = tested on: OVCAR-4 ovarian
# NCI/ADR-RES ovarian = tested on: NCI/ADR-RES ovarian
# OVCAR-3 ovarian = tested on: OVCAR-3 ovarian
# HOP-62 NSCLC = tested on: HOP-62 NSCLC
# PC-3 prostate = tested on: PC-3 prostate
# SK-MEL-5 melanoma = tested on: SK-MEL-5 melanoma
# UACC-62 melanoma = tested on: UACC-62 melanoma
# HCT-15 colon = tested on: HCT-15 colon
# RPMI-8226 leukemia = tested on: RPMI-8226 leukemia
structure (smiles),measurement,setting,value
CC1=C[C@@H]2[C@@H](CC(CO)=C[C@H]3[C@@H]4C(C)(C)[C@]4(OCC(C)C)[C@H](OCC(C)C)[C@@H](C)[C@]23O)C1=O,TGI,MALME-3M melanoma,2.36 µM
same,TGI,A549 NSCLC,> 8.32 µM
same,TGI,SNB-19 CNS,> 8.32 µM
same,TGI,OVCAR-5 ovarian,8.23 µM
same,TGI,TK-10 renal,> 5.97 µM
same,TGI,RXF 393 renal,3.69 µM
same,TGI,SK-OV-3 ovarian,> 8.32 µM
same,TGI,UO-31 renal,> 6.8 µM
same,TGI,NCI-H23 lung,5.81 µM
same,TGI,ACHN renal,3.4 µM
same,TGI,CCRF-CEM leukemia,8.12 µM
same,TGI,SF-539 CNS,2.87 µM
same,TGI,HL-60(TB) leukemia,> 5.52 µM
same,TGI,IGROV1 ovarian,4.8 µM
same,TGI,786-0 renal,> 6.54 µM
same,TGI,HCT-116 colon,> 4.72 µM
same,TGI,HOP-92 NSCLC,> 5.57 µM
same,TGI,COLO 205 colon,1.4 µM
same,TGI,SN12C renal,4.22 µM
same,TGI,KM12 colon,> 5.69 µM
same,TGI,MCF7 breast,6.89 µM
same,TGI,EKVX NSCLC,> 5.64 µM
same,TGI,LOX IMVI melanoma,3.06 µM
same,TGI,BT-549 breast,2.65 µM
same,TGI,SK-MEL-2 melanoma,> 6.43 µM
same,TGI,SF-268 CNS,> 8.32 µM
same,TGI,SF-295 CNS,> 8.32 µM
same,TGI,NCI-H522 lung,4.58 µM
same,TGI,NCI-H226 lung,> 4.53 µM
same,TGI,MDA-N,3.49 µM
same,TGI,K-562 leukemia,> 4.86 µM
same,TGI,SK-MEL-28 melanoma,3.38 µM
same,TGI,NCI-H460 lung,> 8.32 µM
same,TGI,U251 CNS,4.15 µM
same,TGI,A498 renal,> 4.44 µM
same,TGI,MDA-MB-231 breast,3.39 µM
same,TGI,DU-145 prostate,> 8.32 µM
same,TGI,HCC-2998 colon,1.78 µM
same,TGI,MDA-MB-435,> 6.31 µM
same,TGI,HT29 colon,2.87 µM
same,TGI,MOLT-4 leukemia,2.96 µM
same,TGI,UACC-257 melanoma,3.72 µM
same,TGI,HS 578T breast,2.71 µM
same,TGI,CAKI-1 renal,3.69 µM
same,TGI,M14 melanoma,> 5.15 µM
same,TGI,SNB-75 CNS,> 8.32 µM
same,TGI,SW-620 colon,4.68 µM
same,TGI,OVCAR-8 ovarian,> 6.08 µM
same,TGI,T-47D breast,> 8.32 µM
same,TGI,SR leukemia,3.32 µM
same,TGI,OVCAR-4 ovarian,> 8.32 µM
same,TGI,NCI/ADR-RES ovarian,8.31 µM
same,TGI,OVCAR-3 ovarian,5.46 µM
same,TGI,HOP-62 NSCLC,2.8 µM
same,TGI,PC-3 prostate,> 4.51 µM
same,TGI,SK-MEL-5 melanoma,> 4.37 µM
same,TGI,UACC-62 melanoma,3.2 µM
same,TGI,HCT-15 colon,2.77 µM
C=CCC1C(=O)Nc2cccc3ncn(c23)C1=O (stereo not drawn),TGI,MALME-3M melanoma,> 100 µM
same,TGI,A549 NSCLC,> 100 µM
same,TGI,SNB-19 CNS,> 100 µM
same,TGI,OVCAR-5 ovarian,> 100 µM
same,TGI,RXF 393 renal,> 100 µM
same,TGI,SK-OV-3 ovarian,> 100 µM
same,TGI,UO-31 renal,> 100 µM
same,TGI,NCI-H23 lung,> 100 µM
same,TGI,ACHN renal,> 100 µM
same,TGI,CCRF-CEM leukemia,> 100 µM
same,TGI,SF-539 CNS,> 100 µM
same,TGI,HL-60(TB) leukemia,> 100 µM
same,TGI,IGROV1 ovarian,> 100 µM
same,TGI,786-0 renal,> 100 µM
same,TGI,HCT-116 colon,> 100 µM
same,TGI,HOP-92 NSCLC,> 100 µM
same,TGI,COLO 205 colon,> 100 µM
same,TGI,SN12C renal,> 100 µM
same,TGI,KM12 colon,> 100 µM
same,TGI,MCF7 breast,> 100 µM
same,TGI,EKVX NSCLC,> 100 µM
same,TGI,BT-549 breast,> 100 µM
same,TGI,SK-MEL-2 melanoma,> 100 µM
same,TGI,SF-268 CNS,> 100 µM
same,TGI,SF-295 CNS,> 100 µM
same,TGI,NCI-H226 lung,> 100 µM
same,TGI,MDA-N,> 100 µM
same,TGI,K-562 leukemia,> 100 µM
same,TGI,SK-MEL-28 melanoma,> 100 µM
same,TGI,NCI-H460 lung,> 100 µM
same,TGI,U251 CNS,> 100 µM
same,TGI,A498 renal,> 100 µM
same,TGI,MDA-MB-231 breast,> 100 µM
same,TGI,DU-145 prostate,> 100 µM
same,TGI,MDA-MB-435,> 100 µM
same,TGI,HT29 colon,> 100 µM
same,TGI,MOLT-4 leukemia,> 100 µM
same,TGI,UACC-257 melanoma,> 100 µM
same,TGI,HS 578T breast,> 100 µM
same,TGI,CAKI-1 renal,> 100 µM
same,TGI,M14 melanoma,> 100 µM
same,TGI,RPMI-8226 leukemia,> 100 µM
same,TGI,SNB-75 CNS,> 100 µM
same,TGI,SW-620 colon,> 100 µM
same,TGI,OVCAR-8 ovarian,> 100 µM
same,TGI,T-47D breast,> 100 µM
same,TGI,SR leukemia,> 100 µM
same,TGI,OVCAR-4 ovarian,> 100 µM
same,TGI,NCI/ADR-RES ovarian,> 100 µM
same,TGI,OVCAR-3 ovarian,> 100 µM
same,TGI,HOP-62 NSCLC,> 100 µM
same,TGI,PC-3 prostate,> 100 µM
same,TGI,SK-MEL-5 melanoma,> 100 µM
same,TGI,UACC-62 melanoma,> 100 µM
same,TGI,HCT-15 colon,> 100 µM
Cc1ccc2c(c1)C=CC(C#N)N2C(=O)Oc1ccccc1 (stereo not drawn),TGI,MALME-3M melanoma,> 100 µM
same,TGI,A549 NSCLC,> 100 µM
same,TGI,SNB-19 CNS,> 100 µM
same,TGI,OVCAR-5 ovarian,> 100 µM
same,TGI,TK-10 renal,94.2 µM
same,TGI,RXF 393 renal,> 100 µM
same,TGI,UO-31 renal,> 100 µM
same,TGI,NCI-H23 lung,44.5 µM
same,TGI,ACHN renal,83.3 µM
same,TGI,CCRF-CEM leukemia,40.1 µM
same,TGI,SF-539 CNS,> 100 µM
same,TGI,HL-60(TB) leukemia,50.5 µM
same,TGI,IGROV1 ovarian,> 100 µM
same,TGI,786-0 renal,> 100 µM
same,TGI,HCT-116 colon,> 100 µM
same,TGI,HOP-92 NSCLC,64.7 µM
same,TGI,COLO 205 colon,70.1 µM
same,TGI,SN12C renal,> 100 µM
same,TGI,KM12 colon,33.2 µM
same,TGI,MCF7 breast,40.2 µM
same,TGI,EKVX NSCLC,43 µM
same,TGI,LOX IMVI melanoma,40 µM
same,TGI,BT-549 breast,48.2 µM
same,TGI,SK-MEL-2 melanoma,61.9 µM
same,TGI,SF-268 CNS,> 100 µM
same,TGI,NCI-H522 lung,41 µM
same,TGI,NCI-H226 lung,99.9 µM
same,TGI,MDA-N,> 100 µM
same,TGI,K-562 leukemia,64.4 µM
same,TGI,SK-MEL-28 melanoma,> 100 µM
same,TGI,NCI-H460 lung,> 100 µM
same,TGI,U251 CNS,66.4 µM
same,TGI,A498 renal,55.4 µM
same,TGI,MDA-MB-231 breast,> 100 µM
same,TGI,DU-145 prostate,42.7 µM
same,TGI,HCC-2998 colon,31.2 µM
same,TGI,MDA-MB-435,29.7 µM
same,TGI,HT29 colon,35.3 µM
same,TGI,MOLT-4 leukemia,54.9 µM
same,TGI,UACC-257 melanoma,> 100 µM
same,TGI,HS 578T breast,> 100 µM
same,TGI,CAKI-1 renal,> 100 µM
same,TGI,M14 melanoma,> 100 µM
same,TGI,RPMI-8226 leukemia,52.6 µM
same,TGI,SNB-75 CNS,> 100 µM
same,TGI,SW-620 colon,> 100 µM
same,TGI,OVCAR-8 ovarian,31.1 µM
same,TGI,T-47D breast,73.8 µM
same,TGI,SR leukemia,46.8 µM
same,TGI,OVCAR-4 ovarian,70.7 µM
same,TGI,NCI/ADR-RES ovarian,50.6 µM
same,TGI,PC-3 prostate,97.9 µM
same,TGI,SK-MEL-5 melanoma,> 100 µM
same,TGI,UACC-62 melanoma,> 100 µM
same,TGI,HCT-15 colon,57.2 µM
